Assay results taken from article PMC5500575, “Identification of Histamine H3 Receptor Ligands Using a New Crystal Structure Fragment-based Method” (Scientific Reports, 2017).
Entries after “also recorded” stand apart in the source; their conditions may differ.

Tests used:
[1] = target: T1, human histamine H3 receptor (Homo sapiens, UniProt Q9Y5N1); assay: IP-One (HTRF IP1 accumulation) assay, H3 receptor co-expressed with chimeric Gqi5 in tsA201 cells; assay type: cell-based; settings: antagonist mode; for IC50 / pIC50 ± SEM: in the presence of EC80 of histamine; for Result of first pharmacological assaying (pharmacophore screening hits): 20 µM compound, EC80 histamine
T1 construct: expressed in transfected cells; host or cells: tsA201 cells (transformed HEK-293), transient transfection
T1 sequence (Q9Y5N1 whole entry): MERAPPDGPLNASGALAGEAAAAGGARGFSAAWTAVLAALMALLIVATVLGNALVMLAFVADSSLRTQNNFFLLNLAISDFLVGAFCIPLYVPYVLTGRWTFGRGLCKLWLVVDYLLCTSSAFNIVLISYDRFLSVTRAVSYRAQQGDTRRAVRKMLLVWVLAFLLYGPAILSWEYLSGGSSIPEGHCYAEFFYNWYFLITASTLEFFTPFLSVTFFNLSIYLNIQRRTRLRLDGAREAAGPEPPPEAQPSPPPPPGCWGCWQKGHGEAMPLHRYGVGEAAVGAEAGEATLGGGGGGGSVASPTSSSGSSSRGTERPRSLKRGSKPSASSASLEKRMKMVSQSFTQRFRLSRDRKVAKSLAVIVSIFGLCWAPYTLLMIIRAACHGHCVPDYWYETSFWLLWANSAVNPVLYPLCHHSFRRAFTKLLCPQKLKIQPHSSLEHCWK
Method: Human tsA201 cells, a transformed HEK-293 cell line[70], were cultivated in Dulbecco’s Modified Eagle’s Medium (DMEM) with GlutaMAX, supplemented with 10% foetal bovine serum, penicillin 100 U/ml and streptomycin 100 µg/ml. Subconfluent cells grown in a 100 mm dish were transfected with 5 μg DNA using the Polyfect transfection reagent using the protocol of the manufacturer (Qiagen, West Sussex, UK), however with half of the recommended PolyFect volumes. Co-transfections (ratio 4:1) were performed with either constructs expressing the human histamine H3 receptor together with an empty vector and chimeric G protein Gqi5, respectively.
We applied the highly sensitive high-throughput homogeneous time-resolved fluorescence (HTRF) technology[71] for detection of IP-One generation using the Cisbio IP-One Tb assay kit, exactly as previously described. In brief, on the day of assay, ligand solutions were prepared in ligand buffer (Hank’s Balanced Salt Solution (HBSS) containing 20 mM HEPES pH 7.4, 1 mM CaCl2, 1 mM MgCl2, 40 mM LiCl)) and added to the wells of a 384-well OptiPlate (PerkinElmer, Waltham, USA) in triplicates. When testing for antagonist activity the ligand buffer was supplemented with an EC80 concentration of histamine, and we used a final compound concentration of 20 µM and 2 µM for the first (virtual hits) and second (analogues) screening, respectively. Cell suspensions were added and incubated with ligands for 1 hour, followed by the addition of detection solution (IP-One Tb conjugate & Lysis Buffer +2.5% anti-IP1 cryptate Tb conjugate +2.5% IP1-d2 conjugate. 38:1:1) and incubation in the dark for one hour at room temperature. The plate was read on an EnVision 2104 Multilabel Reader (PerkinElmer) by exciting the wells with light of 340 nm and measuring the emission at 615 nm and 665 nm. The fluorescence resonance energy transfer ratios (665 nm/615 nm) were converted to IP1 concentrations by interpolating values from an IP1 standard curve generated from an IP1 calibration stock, provided by the manufacturer (Cisbio).
Data were analysed using GraphPad Prism 6 (GraphPad Software, San Diego, CA, USA). Concentration-response curves were fitted by nonlinear regression to equation (1):1 R=Rmax+Rmax−Rmin/1+10^(logIC50−X)∗nH where X is the logarithm of the concentration, R is the response, R max is the maximal response, R min is the minimal response, IC50 is the concentration giving half-maximum reduction of the response, and nH is the Hill coefficient, which describes the steepness of the curve. IP-One assay results are reported either as raw FRET in arbitrary units, as IP1 concentration (nM) or as fold over basal (normalized to the basal level of IP1 in ligand buffer [IP1]/[IP1]basal). The Z′-factors were calculated using equation (2):2 Z′=1−3σc++3σc−/|µc+−µc−|

[2] = target: T2, human H3 receptor (Homo sapiens, UniProt Q9Y5N1); assay: [3H]N-α-methylhistamine radioligand competition binding assay; settings: for Ki / Affinity (pKi): 0.3 nM [3H]N-α-methylhistamine; for Ki: Cheng-Prusoff with Kd 0.15 nM; for Competition with [3H]N-α-methylhistamine binding (in words): 0.3 nM radioligand, NSB defined with 10 µM histamine; for Affinity (pKi): ± SEM; for Change of potency upon repeated experimentation: possibly due to compound breakdown
T2 construct: expressed in transfected cells; host or cells: HEK-293T cells, membranes
T2 sequence (Q9Y5N1 whole entry): as above
Method: HEK-239T cells were grown to 70% confluency in 150 mm cell culture dishes and transfected with 8 µg human H3 receptor using the Polyfect transfection reagent as previously described. After 48 hours, cells were washed from each cell culture dish with Dulbecco’s phosphate buffered saline and harvested using a cell scraper. The resulting cell suspension was then centrifuged and resuspended in 500 µL lysis buffer (50 mM Tris-HCl, pH 7.4). The cell lysate was centrifuged at 16,000 g for 20 minutes at 4 °C. The resultant membrane pellets were stored at −80 °C until use. Each pellet was resuspended in 500 µL binding buffer (50 mM Tris-HCl, 0.5 mM EDTA, pH 7.4), homogenized and centrifuged at 16,000 g for 15 minutes at 4 °C, and subsequently resuspended in 15 mL of binding buffer to a desired protein concentration of approximately 0.2 mg/mL as determined by the method of Bradford[73]. The membrane solution (30 µg protein per well) was incubated for 90 minutes in 250 µL of binding buffer, with or without compound, together with 0.3 nM [^3H]N-α-methylhistamine at room temperature. Non-specific binding was defined as the radioligand bound to membrane solution incubated with 10 µM histamine. The binding reaction was terminated by rapid filtration through Whatman GF/C unifilters (PerkinElmer), and washed four times with ice-cold wash buffer (50 mM Tris-HCl, 10 mM MgCl2, 0.1 mM EDTA, pH 7.4) using a 96-well Packard FilterMate cell harvester (PerkinElmer). Finally, Microscint 0 scintillation liquid (PerkinElmer) was added to the dried filters, and the radioactivity quantified in a Packard TopCount NXT microplate Scintillation Counter (PerkinElmer).
The binding data was fitted by nonlinear regression to equation (3):3 Y=Ymax+Ymax−Ymin/1+10^X−logIC50 where X is the logarithm of the concentration, Y is the specific binding, Y max is the maximal specific binding, Y min is the minimal specific binding, and IC50 is the concentration giving half-maximum reduction in specific binding.

[3] = target: H3 receptor; parameters: method as in ChEMBL [64]; settings: known H3 ligand; ref ChEMBL [64]; cited from earlier work
[4] = target: mouse H3 receptor; settings: Gqi5, Ca2+ release; cited from earlier work

In the case of CCCCN1CN(CCCN(C)c2ccccc2)Cn2c1nc1ccccc12 [Compound 68], the IC50 [1] is reported as 22 µM, the “pIC50 ± SEM” value [1] is reported as 4.66±0.20 and the Ki [2] is reported as over 300 µM. For the same compound, the “Competition with [3H]N-α-methylhistamine binding (in words)” value (shortened to “Competition”) [2] was “little to no effect on radiolabeled ligand binding; also recorded: unable to compete with binding”.
For CN(C)CCCNc1c2c(nc3ccccc13)CCCCC2 [ChEMBL 65849], the “Affinity (pKi) of most similar ChEMBL ligand” value [3] is given as 8.0.
For COc1cccc(OCCN2CCC(N3CCCCC3)CC2)c1 [ChEMBL 460313], the “Affinity (pKi) of most similar ChEMBL ligand” value [3] is listed as 6.9.
In the case of CCCCN1CN(CCCN2CCCCC2)Cn2c1nc1ccccc12 [Compound 35], the “Result of first pharmacological assaying (pharmacophore screening hits)” value (“Result of first pharmacological assaying” below) [1] is reported as “antagonist hits”, the IC50 [1] is reported as 3.3 µM and the “pIC50 ± SEM” value [1] is reported as 5.5 ± 0.27. For the same compound, the Ki [2] was 1.75 µM and the “Affinity (pKi)” value [2] was 5.76 ± 0.05.
In the case of NCCc1c[nH]cn1 [histamine], the EC50 [4] is given as 0.0218 µM.
In the case of Cc1ccc2c(c1)c1c3n2CCN(CC(O)CNCc2ccccc2)C3CCC1 (centres unmarked) [Compound 42], the “Result of first pharmacological assaying” value [1] is reported as “antagonist hits”, the IC50 [1] is reported as 42.1 µM and the “pIC50 ± SEM” value [1] is reported as 4.38±0.11. For the same compound, the Ki [2] was 14.8 µM, the “Affinity (pKi)” value [2] was 4.83±0.08 and the “Competition” value [2] was “unable to outcompete radiolabeled ligand to NSB levels; also recorded: unable to lower the binding of [^3H]N-α-methylhistamine to non-specific binding levels”.
In the case of Cc1ccc2c(c1)c1c3n2CCN(CC(O)CN2CCN(C)CC2)C3CCC1 (centres unmarked) [Compound 75], the IC50 [1] is reported as 121 µM, the “pIC50 ± SEM” value [1] is reported as 3.92±0.18 and the Ki [2] is reported as 4.82 µM. For the same compound, the “Affinity (pKi)” value [2] was 5.32±0.04.
In the case of Cc1ccc(CN2CCCN(C(=O)CCSCc3cn4ccccc4n3)CC2)cc1 [Compound 44], the “Result of first pharmacological assaying” value [1] is reported as “seemingly active”, the Ki [2] is reported as 2.82 µM and the “Affinity (pKi)” value [2] is reported as 5.55±0.06. The “Competition” value [2] was “unable to outcompete radiolabeled ligand to NSB levels; also recorded: unable to lower the binding of [^3H]N-α-methylhistamine to non-specific binding levels”.
For CCN(Cc1nc2ccccc2[nH]1)CC1CCCN(CCc2cccc(OC)c2)C1 (centres unmarked) [Compound 9], the “Result of first pharmacological assaying” value [1] was “seemingly active”, the Ki [2] was 1.75 µM and the “Affinity (pKi)” value [2] was 5.76±0.25. The “Change of potency upon repeated experimentation” value [2] was “continued decrease in potency observed upon repeated experimentation”.
With Cc1nccn1-c1ccc(CNCc2cccc(C#N)c2)cc1F [Compound 20] the “Result of first pharmacological assaying” value [1] was “borderline activity”, the Ki [2] was 4.24 µM and the “Affinity (pKi)” value [2] was 5.37±0.12. The “Change of potency upon repeated experimentation” value [2] was “continued decrease in potency observed upon repeated experimentation”.
In the case of CN1CCC(C(=O)c2cc3cc(Cl)ccc3[nH]2)CC1 [ChEMBL 186456], the “Affinity (pKi) of most similar ChEMBL ligand” value [3] is given as 5.5.
In the case of c1ccc2c(c1)nc1n(CCN3CCCCC3)cnn21 [ChEMBL 1923529], the “Affinity (pKi) of most similar ChEMBL ligand” value [3] is given as 6.2.
With Cc1nc(N2CCN(c3ncc[nH]c3=O)CC2)c2sccc2n1 [Compound 21] the “Result of first pharmacological assaying” value [1] was “antagonist hits”, the IC50 [1] was 20.9 µM and the “pIC50 ± SEM” value [1] was 4.68±0.10. For the same compound, the Ki [2] was over 50 µM and the “Competition” value [2] was “little to no effect on radiolabeled ligand binding; also recorded: unable to compete with binding”.
For OC1(c2ccccn2)CCCN(c2nnc(N3CCC(N4CCCCC4)CC3)s2)C1 (centres unmarked) [ChEMBL 2048591], the “Affinity (pKi) of most similar ChEMBL ligand” value [3] is given as 7.3.
In the case of CNCc1cc(C#CCCN2CCNC(=O)C2)ccc1Oc1ccc(SC)cc1 [ChEMBL 237514], the “Affinity (pKi) of most similar ChEMBL ligand” value [3] is given as 6.1.
For CCN1CCNC(=O)C1CC(=O)N1CCc2[nH]c3c(C)cccc3c2C1 (centres unmarked) [Compound 64], the IC50 [1] was 261 µM, the “pIC50 ± SEM” value [1] was 3.58±0.17 and the Ki [2] was 86.7 µM. For the same compound, the “Affinity (pKi)” value [2] was 4.06±0.11.
